{"source": "the supplement of paper PMC11208160", "data": [{"experiment": "recombinant barcode read abundance after kanamycin selection (control-corrected) (log10(CPM+1)); higher = more efficient recombination; sequences stand for … in AGTGCAGAGAAAATCGGCCAGTTTTCTCTGCCTGCAGTCCGCATGCCGT…AGATTTATGCAGCGGACTGCCTTTCTCCCAAAGTGATAAACCGGACAGTATCATGGACCGGTTTTCCCGGTAATCCGTATTTGCAAGGTTGGTTTCACT; site = the 11-nt target", "outline": "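In E. coli, a pooled library matched targets to IS621 bridge RNA target-binding loops and was introduced alongside a donor plasmid. Cells went onto chloramphenicol/ampicillin/kanamycin with 0.1 mM IPTG or onto chloramphenicol/ampicillin LB agar as control, in duplicate. Recombination efficiency, from recombinant-junction barcodes as counts per million, is averaged and control-corrected. It is reported as log10(CPM+1).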", "values": [{"sequence": "GAGTTACCTTGGGTTCTAACCTGTTGCGT (site GAGTTGCCTAC)", "recombinant barcode read abundance (log10)": 0.229}, {"sequence": "GAGTTACCTTGGGTTCTAACCTGTTGCGT (site GAGTTTCCTAC)", "recombinant barcode read abundance (log10)": 0.0625}, {"sequence": "GAGTTCACTTGGGTTCTAACCTGTTGCCT (site GAGTTCACTAG)", "recombinant barcode read abundance (log10)": 0.618}, {"sequence": "GAGTTCACTTGGGTTCTAACCTGTTGCCT (site GGGTTCACTCG)", "recombinant barcode read abundance (log10)": 0.0995}, {"sequence": "GAGTTCGCTTGGGTTCTAACCTGTTGCGG (site GAGTTCGCTCC)", "recombinant barcode read abundance (log10)": 1.08}, {"sequence": "GAGTTCGCTTGGGTTCTAACCTGTTGCGG (site TAGTCCGCTCC)", "recombinant barcode read abundance (log10)": 0}, {"sequence": "GAGTTGTCTTGGGTTCTAACCTGTTGCGG (site CTCGCCACTAG)", "recombinant barcode read abundance (log10)": 0.0798}, {"sequence": "GAGTTGTCTTGGGTTCTAACCTGTTGCGG (site GAGTTGTCTCC)", "recombinant barcode read abundance (log10)": 1.83}, {"sequence": "GATAACGCTTGGGTTCTAACCTGTTGCCT (site ATGGTACCTTA)", "recombinant barcode read abundance (log10)": 0.0115}, {"sequence": "GATAACGCTTGGGTTCTAACCTGTTGCCT (site GATAACGCTAG)", "recombinant barcode read abundance (log10)": 1.05}, {"sequence": "GATACGCCTTGGGTTCTAACCTGTTGCCT (site GATACGACTAG)", "recombinant barcode read abundance (log10)": 0.0197}, {"sequence": "GATACGCCTTGGGTTCTAACCTGTTGCCT (site GATACGCCTAG)", "recombinant barcode read abundance (log10)": 0.134}, {"sequence": "GATACGCCTTGGGTTCTAACCTGTTGCCT (site GATACGGCTAG)", "recombinant barcode read abundance (log10)": 0.167}, {"sequence": "GATACGCCTTGGGTTCTAACCTGTTGCCT (site GATACGTCTAG)", "recombinant barcode read abundance (log10)": 0.139}, {"sequence": "GATACGTCTTGGGTTCTAACCTGTTGCCT (site GATACGACTAG)", "recombinant barcode read abundance (log10)": 0.352}, {"sequence": "GATACGTCTTGGGTTCTAACCTGTTGCCT (site GATACGCCTAG)", "recombinant barcode read abundance (log10)": 0.187}, {"sequence": "GATACGTCTTGGGTTCTAACCTGTTGCCT (site GATACGGCTAG)", "recombinant barcode read abundance (log10)": 0.195}, {"sequence": "GATACGTCTTGGGTTCTAACCTGTTGCCT (site GATACGTCTAG)", "recombinant barcode read abundance (log10)": 0.623}, {"sequence": "GATAGAACTTGGGTTCTAACCTGTTGCTT (site GAGAGGACTAA)", "recombinant barcode read abundance (log10)": 0.204}, {"sequence": "GATAGAACTTGGGTTCTAACCTGTTGCTT (site GATAGAACTAA)", "recombinant barcode read abundance (log10)": 0.94}, {"sequence": "GATAGGACTTGGGTTCTAACCTGTTGCCT (site GATAGGACTAG)", "recombinant barcode read abundance (log10)": 0.647}, {"sequence": "GATAGGACTTGGGTTCTAACCTGTTGCCT (site GATGGGACTCG)", "recombinant barcode read abundance (log10)": 0}, {"sequence": "GATATAGCTTGGGTTCTAACCTGTTGCCT (site GATAGAGCTCG)", "recombinant barcode read abundance (log10)": 0.54}, {"sequence": "GATATAGCTTGGGTTCTAACCTGTTGCCT (site GATATAGCTAG)", "recombinant barcode read abundance (log10)": 1.06}, {"sequence": "GATCAACCTTGGGTTCTAACCTGTTGCCT (site GATCAACCTAG)", "recombinant barcode read abundance (log10)": 1.62}, {"sequence": "GATCAACCTTGGGTTCTAACCTGTTGCCT (site GCTCAACCTAG)", "recombinant barcode read abundance (log10)": 0.0583}, {"sequence": "GATCAACCTTGGGTTCTAACCTGTTGCCT (site GGTCAACCTAG)", "recombinant barcode read abundance (log10)": 0.0197}, {"sequence": "GATCAACCTTGGGTTCTAACCTGTTGCCT (site GTTCAACCTAG)", "recombinant barcode read abundance (log10)": 0.235}, {"sequence": "GATCACCCTTGGGTTCTAACCTGTTGCAT (site CGAGTGTCTTA)", "recombinant barcode read abundance (log10)": 0.193}, {"sequence": "GATCACCCTTGGGTTCTAACCTGTTGCAT (site GATCACCCTAT)", "recombinant barcode read abundance (log10)": 1.68}, {"sequence": "GATCGATCTTGGGTTCTAACCTGTTGCAT (site GATCGATCTAA)", "recombinant barcode read abundance (log10)": 0.0308}, {"sequence": "GATCGATCTTGGGTTCTAACCTGTTGCAT (site GATCGATCTAC)", "recombinant barcode read abundance (log10)": 0.163}, {"sequence": "GATCGATCTTGGGTTCTAACCTGTTGCAT (site GATCGATCTAG)", "recombinant barcode read abundance (log10)": 0.307}, {"sequence": "GATCGATCTTGGGTTCTAACCTGTTGCAT (site GATCGATCTAT)", "recombinant barcode read abundance (log10)": 0.666}, {"sequence": "GATGAGACTTGGGTTCTAACCTGTTGCCG (site GATGAGACTCG)", "recombinant barcode read abundance (log10)": 2.22}, {"sequence": "GATGAGACTTGGGTTCTAACCTGTTGCCG (site GCTGAGACTCG)", "recombinant barcode read abundance (log10)": 0.223}, {"sequence": "GATGAGTCTTGGGTTCTAACCTGTTGCCT (site GATGAGTCTAA)", "recombinant barcode read abundance (log10)": 0.71}, {"sequence": "GATGAGTCTTGGGTTCTAACCTGTTGCCT (site GATGAGTCTAG)", "recombinant barcode read abundance (log10)": 1.9}, {"sequence": "GATGCCTCTTGGGTTCTAACCTGTTGCCT (site GAAGCATCTAG)", "recombinant barcode read abundance (log10)": 0.147}, {"sequence": "GATGCCTCTTGGGTTCTAACCTGTTGCCT (site GATGCCTCTAG)", "recombinant barcode read abundance (log10)": 2.06}, {"sequence": "GATGCGACTTGGGTTCTAACCTGTTGCCG (site GATGCGACTCG)", "recombinant barcode read abundance (log10)": 0.968}, {"sequence": "GATGCGACTTGGGTTCTAACCTGTTGCCG (site GATGTGACTAG)", "recombinant barcode read abundance (log10)": 0.121}, {"sequence": "GATGCTACTTGGGTTCTAACCTGTTGCCA (site GATCCTACTTG)", "recombinant barcode read abundance (log10)": 0.124}, {"sequence": "GATGCTACTTGGGTTCTAACCTGTTGCCA (site GATGCTACTTG)", "recombinant barcode read abundance (log10)": 0.0236}, {"sequence": "GATGCTTCTTGGGTTCTAACCTGTTGCTT (site AATGCTTCTAA)", "recombinant barcode read abundance (log10)": 0.101}, {"sequence": "GATGCTTCTTGGGTTCTAACCTGTTGCTT (site GATGCTTCTAA)", "recombinant barcode read abundance (log10)": 0.223}, {"sequence": "GATGGACCTTGGGTTCTAACCTGTTGCTA (site ATGTCTGCTAG)", "recombinant barcode read abundance (log10)": 0.0118}, {"sequence": "GATGGACCTTGGGTTCTAACCTGTTGCTA (site GATGGACCTTA)", "recombinant barcode read abundance (log10)": 2.39}, {"sequence": "GATGGCCCTTGGGTTCTAACCTGTTGCCT (site GATGGCCCTAG)", "recombinant barcode read abundance (log10)": 1.23}, {"sequence": "GATGGCCCTTGGGTTCTAACCTGTTGCCT (site GCTGGCCCTAG)", "recombinant barcode read abundance (log10)": 0.103}, {"sequence": "GATGGCCCTTGGGTTCTAACCTGTTGCCT (site GGTGGCCCTAG)", "recombinant barcode read abundance (log10)": 0.113}, {"sequence": "GATGGCCCTTGGGTTCTAACCTGTTGCCT (site GTTGGCCCTAG)", "recombinant barcode read abundance (log10)": 0.127}, {"sequence": "GATGGGCCTTGGGTTCTAACCTGTTGCGT (site GATGGGCCTAC)", "recombinant barcode read abundance (log10)": 2.54}, {"sequence": "GATGGGCCTTGGGTTCTAACCTGTTGCGT (site GCTGGGCCTTC)", "recombinant barcode read abundance (log10)": 0.246}, {"sequence": "GATGTACCTTGGGTTCTAACCTGTTGCCT (site AATGTACCTAG)", "recombinant barcode read abundance (log10)": 0.984}, {"sequence": "GATGTACCTTGGGTTCTAACCTGTTGCCT (site CATGTACCTAG)", "recombinant barcode read abundance (log10)": 0.43}, {"sequence": "GATGTACCTTGGGTTCTAACCTGTTGCCT (site GATGTACCTAG)", "recombinant barcode read abundance (log10)": 1.7}, {"sequence": "GATGTACCTTGGGTTCTAACCTGTTGCCT (site TATGTACCTAG)", "recombinant barcode read abundance (log10)": 1.06}, {"sequence": "GATGTGACTTGGGTTCTAACCTGTTGCCT (site GATGCGACTCG)", "recombinant barcode read abundance (log10)": 0.182}, {"sequence": "GATGTGACTTGGGTTCTAACCTGTTGCCT (site GATGTGACTAG)", "recombinant barcode read abundance (log10)": 2.3}, {"sequence": "GATTAGACTTGGGTTCTAACCTGTTGCCT (site AATTAGACTAG)", "recombinant barcode read abundance (log10)": 0.308}, {"sequence": "GATTAGACTTGGGTTCTAACCTGTTGCCT (site CATTAGACTAG)", "recombinant barcode read abundance (log10)": 0.0591}, {"sequence": "GATTAGACTTGGGTTCTAACCTGTTGCCT (site GATTAGACTAG)", "recombinant barcode read abundance (log10)": 1.09}, {"sequence": "GATTAGACTTGGGTTCTAACCTGTTGCCT (site TATTAGACTAG)", "recombinant barcode read abundance (log10)": 0.331}, {"sequence": "GATTCACCTTGGGTTCTAACCTGTTGCCT (site AATTCACCTAG)", "recombinant barcode read abundance (log10)": 0.543}, {"sequence": "GATTCACCTTGGGTTCTAACCTGTTGCCT (site CATTCACCTAG)", "recombinant barcode read abundance (log10)": 0.0425}, {"sequence": "GATTCACCTTGGGTTCTAACCTGTTGCCT (site GATTCACCTAG)", "recombinant barcode read abundance (log10)": 0.739}, {"sequence": "GATTCACCTTGGGTTCTAACCTGTTGCCT (site TATTCACCTAG)", "recombinant barcode read abundance (log10)": 0.274}, {"sequence": "GATTTCTCTTGGGTTCTAACCTGTTGCCT (site AATTTCTCTAG)", "recombinant barcode read abundance (log10)": 0.104}, {"sequence": "GATTTCTCTTGGGTTCTAACCTGTTGCCT (site CATTTCTCTAG)", "recombinant barcode read abundance (log10)": 0.0742}, {"sequence": "GATTTCTCTTGGGTTCTAACCTGTTGCCT (site GATTTCTCTAG)", "recombinant barcode read abundance (log10)": 0.228}, {"sequence": "GATTTCTCTTGGGTTCTAACCTGTTGCCT (site TATTTCTCTAG)", "recombinant barcode read abundance (log10)": 0.124}, {"sequence": "GCAAGATCTTGGGTTCTAACCTGTTGCCT (site GCAAGATCTAG)", "recombinant barcode read abundance (log10)": 1.36}, {"sequence": "GCAAGATCTTGGGTTCTAACCTGTTGCCT (site GCAGGGTCTAG)", "recombinant barcode read abundance (log10)": 0.0113}, {"sequence": "GCAATGACTTGGGTTCTAACCTGTTGCCT (site GAAATGACTAG)", "recombinant barcode read abundance (log10)": 0}, {"sequence": "GCAATGACTTGGGTTCTAACCTGTTGCCT (site GCAATGACTAG)", "recombinant barcode read abundance (log10)": 1.88}, {"sequence": "GCAATGACTTGGGTTCTAACCTGTTGCCT (site GGAATGACTAG)", "recombinant barcode read abundance (log10)": 0.105}, {"sequence": "GCAATGACTTGGGTTCTAACCTGTTGCCT (site GTAATGACTAG)", "recombinant barcode read abundance (log10)": 0.292}, {"sequence": "GCAATGTCTTGGGTTCTAACCTGTTGCCT (site GAAATGTCTAG)", "recombinant barcode read abundance (log10)": 0.104}, {"sequence": "GCAATGTCTTGGGTTCTAACCTGTTGCCT (site GCAATGTCTAG)", "recombinant barcode read abundance (log10)": 1.42}, {"sequence": "GCAATGTCTTGGGTTCTAACCTGTTGCCT (site GGAATGTCTAG)", "recombinant barcode read abundance (log10)": 0.239}, {"sequence": "GCAATGTCTTGGGTTCTAACCTGTTGCCT (site GTAATGTCTAG)", "recombinant barcode read abundance (log10)": 0.443}, {"sequence": "GCACACCCTTGGGTTCTAACCTGTTGCCT (site CCACATCCTAG)", "recombinant barcode read abundance (log10)": 0.0345}, {"sequence": "GCACACCCTTGGGTTCTAACCTGTTGCCT (site GCACACCCTAG)", "recombinant barcode read abundance (log10)": 1.1}, {"sequence": "GCACATCCTTGGGTTCTAACCTGTTGCGT (site GCAAATCCTAG)", "recombinant barcode read abundance (log10)": 0.154}, {"sequence": "GCACATCCTTGGGTTCTAACCTGTTGCGT (site GCACATCCTAC)", "recombinant barcode read abundance (log10)": 2.53}]}]}
